We go through 20 compounds from patent publication US20260109707A1, “HETEROBIFUNCTIONAL COMPOUNDS AND METHODS OF TREATING DISEASE” (Halda Therapeutics OpCo. Inc., priority 2022, published 2026).

Where two headings read alike, the source gives them in different places. Bounds are passed on as bounds.

For one assay, the system named is VCaP cells. Put plainly: Cellular growth inhibition assay for VCaP cells (CellTiter-Glo, 72 hours). Format: cell-based, human. The procedure, abridged:
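Luminescent viability signal after 72 h of compound exposure gave GI50 values by four-parameter nonlinear regression. Compounds were added in 0.5% DMSO to cells plated 24 h earlier at 5000/well in DMEM containing 10% FBS.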

Assay [1] relates to T-Rex 293 cell line SC3 cells having increased expression of androgen receptor protein due to exposure to doxycycline. The assay is described as follows: Cellular growth inhibition assay, T-Rex 293 SC3 cells with doxycycline (CellTiter-Glo, 72 hours). Format: cell-based. To be noted: T-Rex 293 SC3 cells with increased androgen receptor expression due to doxycycline (10 ng/mL). The procedure, abridged: (§1)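 Doxycycline (10 ng/mL) was either included or omitted to toggle wild-type androgen receptor expression in SC3 cells, a T-Rex 293 clone, grown in stripped-serum, phenol red-free medium. After 72 hours with compound, viable cells were quantified by CellTiter-Glo 2.0.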

Assay [2] deals with T-Rex 293 cell line SC3 cells lacking increased expression of androgen receptor protein. The assay is described as follows: Cellular growth inhibition assay, T-Rex 293 SC3 cells without doxycycline (CellTiter-Glo, 72 hours). Format: cell-based. The conditions noted are these: T-Rex 293 cell line SC3 cells not exposed to doxycycline (lacking increased androgen receptor expression). Put shortly:
as §1

A further assay relates to T47D cells. The assay is described as follows: Cellular growth inhibition assay for T47D cells (CellTiter-Glo, 72 hours). Format: cell-based, human. The conditions noted are these: 72 hours treatment. Put shortly:
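Growth inhibition as GI50, fitted with four parameters to CellTiter-Glo luminescence after 72 h of compound exposure (0.5% DMSO). Cells were T47D, grown in insulin-supplemented (0.2 units/mL) DMEM with 10% FBS and treated one day post-seeding.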

Consider `Cc1sc2c(c1C)C(c1ccc(CNC(=O)[C@@H]3CCCN(c4ccc(C(=O)N[C@H]5CC[C@H](Oc6ccc(C#N)c(Cl)c6)CC5)nn4)C3)cc1)=N[C@@H](Cc1ncco1)c1nnc(C)n1-2` [I-230], for which the GI50 in the assay with VCaP cells (Homo sapiens, VCaP, 72 h) was 500 to 1500 nM; in assay [1] (72 h) it was under 500 nM; in assay [2] (72 h), 500 to 1500 nM; in the assay with T47D cells (Homo sapiens, T47D, 72 h) it was 1500 to 3000 nM.

`Cc1sc2c(c1C)C(c1ccc(N3CCC(CNC(=O)c4ccc(C(=O)N[C@H]5CC[C@H](Oc6ccc(C#N)c(Cl)c6)CC5)nn4)CC3)cc1)=N[C@@H](Cc1ncco1)c1nnc(C)n1-2` [I-231]: the GI50 was over 3000 nM with VCaP cells; over 3000 nM in assay [1]; over 3000 nM in assay [2]; 500 to 1500 nM in the assay on T47D cells (Homo sapiens, T47D, 72 h).

Regarding `Cc1sc2c(c1C)C(c1ccc(N3CCC(CNC(=O)c4ccc(C(=O)N[C@H]5CC[C@H](Oc6ccc(C#N)c(Cl)c6)CC5)nn4)CC3)cc1)=N[C@@H](Cc1ncco1)c1nnc(C)n1-2` [I-232], the GI50 in the assay on VCaP cells is under 500 nM; in assay [1], under 500 nM; in assay [2], 500 to 1500 nM; in the assay with T47D cells it was under 500 nM.

`Cc1sc2c(c1C)C(c1ccc(CNC(=O)CNC(=O)c3ccc(C(=O)N[C@H]4CC[C@H](Oc5ccc(C#N)c(Cl)c5)CC4)nn3)cc1)=N[C@@H](Cc1ncco1)c1nnc(C)n1-2` [I-233]: the GI50 in the assay with VCaP cells (Homo sapiens, VCaP, 72 h) was under 500 nM; in assay [1] (72 h), under 500 nM; in assay [2] (72 h) it was over 3000 nM; with T47D cells (Homo sapiens, T47D, 72 h) it was 500 to 1500 nM.

As for `Cc1sc2c(c1C)C(c1ccc(C#C[C@H]3C[C@]4(CCCN(c5ccc(C(=O)N[C@H]6CC[C@H](Oc7ccc(C#N)c(Cl)c7)CC6)nn5)C4)C3)cc1)=N[C@@H](Cc1ncco1)c1nnc(C)n1-2` [I-234], the 50% growth inhibitory concentration (GI50) in the assay on VCaP cells (Homo sapiens, VCaP, 72 h) was under 500 nM; in assay [1] (72 h), under 500 nM; in assay [2] (72 h), under 500 nM; in the assay with T47D cells (Homo sapiens, T47D, 72 h), under 500 nM.

With `Cc1sc2c(c1C)C(c1ccc(C#C[C@H]3C[C@@]4(CCCN(c5ccc(C(=O)N[C@H]6CC[C@H](Oc7ccc(C#N)c(Cl)c7)CC6)nn5)C4)C3)cc1)=N[C@@H](Cc1ncco1)c1nnc(C)n1-2` [I-235], the GI50 with VCaP cells (Homo sapiens, VCaP, 72 h) is under 500 nM; in assay [1] (72 h) it was under 500 nM; in assay [2] (72 h), under 500 nM; with T47D cells (Homo sapiens, T47D, 72 h) it was under 500 nM.

As for `Cc1sc2c(c1C)C(c1ccc([C@H]3CC[C@H](N4CCCN(c5ccc(C(=O)N[C@H]6CC[C@H](Oc7ccc(C#N)c(Cl)c7)CC6)nn5)CC4)CC3)cc1)=N[C@@H](Cc1ncco1)c1nnc(C)n1-2` [I-236], the GI50 in the assay on VCaP cells (Homo sapiens, VCaP, 72 h) was over 3000 nM; in assay [1] (72 h), under 500 nM; in assay [2] (72 h), over 3000 nM; with T47D cells (Homo sapiens, T47D, 72 h), over 3000 nM.

Turning to `Cc1sc2c(c1C)C(c1ccc(OC3CC4(CCN(c5ccc(C(=O)N[C@H]6CC[C@H](Oc7ccc(C#N)c(Cl)c7)CC6)nn5)CC4)C3)cc1)=N[C@](C)(C(C)c1ncco1)c1nnc(C)n1-2` (some centres unmarked) [I-237], the GI50 is over 3000 nM in the assay on VCaP cells (Homo sapiens, VCaP, 72 h); under 500 nM in assay [1] (72 h); over 3000 nM in assay [2] (72 h); under 500 nM in the assay on T47D cells (Homo sapiens, T47D, 72 h).

For `Cc1sc2c(c1C)C(c1ccc(C(=O)N3CCN(C(=O)c4ccc(C(=O)N[C@H]5CC[C@H](Oc6ccc(C#N)c(Cl)c6)CC5)nn4)CC3)cc1)=N[C@@H](Cc1ncco1)c1nnc(C)n1-2` [I-238], the concentration for 50% growth inhibition (GI50) in the assay on VCaP cells (Homo sapiens, VCaP, 72 h) was over 3000 nM; in assay [1] (72 h) it was over 3000 nM; in assay [2] (72 h) it was over 3000 nM; in the assay on T47D cells (Homo sapiens, T47D, 72 h), over 3000 nM.

On to `Cc1sc2c(c1C)C(c1ccc(C(=O)N3CCN(C(=O)c4ccc(C(=O)N[C@H]5CC[C@H](Oc6ccc(C#N)c(Cl)c6)CC5)nn4)CC3)cc1)=N[C@H](Cc1ncco1)c1nnc(C)n1-2` [I-239], for which the GI50 in the assay with VCaP cells (Homo sapiens, VCaP, 72 h) is 1500 to 3000 nM; in assay [1] (72 h), under 500 nM; in assay [2] (72 h), over 3000 nM; in the assay on T47D cells (Homo sapiens, T47D, 72 h), over 3000 nM.

As for `Cc1sc2c(c1C)C(c1ccc(C(=O)N3CCC(Cc4ccc(C(=O)N[C@H]5CC[C@H](Oc6ccc(C#N)c(Cl)c6)CC5)nn4)CC3)cc1)=N[C@@H](Cc1ncco1)c1nnc(C)n1-2` [I-240], the GI50 is over 3000 nM in the assay with VCaP cells (Homo sapiens, VCaP, 72 h); under 500 nM in assay [1] (72 h); over 3000 nM in assay [2] (72 h); 500 to 1500 nM in the assay on T47D cells (Homo sapiens, T47D, 72 h).

`Cc1sc2c(c1C)C(c1ccc(C(=O)N3CCC(Cc4ccc(C(=O)N[C@H]5CC[C@H](Oc6ccc(C#N)c(Cl)c6)CC5)nn4)CC3)cc1)=N[C@H](Cc1ncco1)c1nnc(C)n1-2` [I-241]: the GI50 in the assay on VCaP cells (Homo sapiens, VCaP, 72 h) is 500 to 1500 nM; in assay [1] (72 h), under 500 nM; in assay [2] (72 h), 500 to 1500 nM; with T47D cells (Homo sapiens, T47D, 72 h) it was 500 to 1500 nM.

With `Cc1sc2c(c1C)C(c1ccc(CN3CCN(C(=O)c4ccc(C(=O)N[C@H]5CC[C@H](Oc6ccc(C#N)c(Cl)c6)CC5)nn4)CC3)cc1)=N[C@@H](Cc1ncco1)c1nnc(C)n1-2` [I-242], the concentration for 50% growth inhibition (GI50) is under 500 nM with VCaP cells (Homo sapiens, VCaP, 72 h); under 500 nM in assay [1] (72 h); under 500 nM in assay [2] (72 h); under 500 nM with T47D cells (Homo sapiens, T47D, 72 h).

`Cc1sc2c(c1C)C(c1ccc(CNC(=O)CN(C)c3ccc(C(=O)N[C@H]4CC[C@H](Oc5ccc(C#N)c(Cl)c5)CC4)nn3)cc1)=N[C@@H](Cc1ncco1)c1nnc(C)n1-2` [I-243]: the GI50 in the assay with VCaP cells (Homo sapiens, VCaP, 72 h) is 500 to 1500 nM; in assay [1] (72 h), under 500 nM; in assay [2] (72 h), 500 to 1500 nM; in the assay with T47D cells (Homo sapiens, T47D, 72 h), 500 to 1500 nM.

As for `Cc1sc2c(c1C)C(c1ccc([C@H]3CC[C@@H](N4CCCN(c5ccc(C(=O)N[C@H]6CC[C@H](Oc7ccc(C#N)c(Cl)c7)CC6)nn5)CC4)CC3)cc1)=N[C@@H](Cc1ncco1)c1nnc(C)n1-2` [I-244], the 50% growth inhibitory concentration (GI50) was over 3000 nM in the assay on VCaP cells (Homo sapiens, VCaP, 72 h); under 500 nM in assay [1] (72 h); over 3000 nM in assay [2] (72 h); over 3000 nM in the assay with T47D cells (Homo sapiens, T47D, 72 h).

As for `Cc1sc2c(c1C)C(c1ccc(OC3CC4(CCN(c5ccc(C(=O)N[C@H]6CC[C@H](Oc7ccc(C#N)c(Cl)c7)CC6)nn5)CC4)C3)cc1)=N[C@@H](CC(C)(C)O)c1nnc(C)n1-2` [I-245], the 50% growth inhibitory concentration (GI50) in the assay on VCaP cells (Homo sapiens, VCaP, 72 h) is under 500 nM; in assay [1] (72 h) it was under 500 nM; in assay [2] (72 h), over 3000 nM; in the assay with T47D cells (Homo sapiens, T47D, 72 h), over 3000 nM.

In the case of `Cc1sc2c(c1C)C(c1ccc(O[C@H]3C[C@@H](N(C(C)C)C4CCN(c5ccc(C(=O)N[C@H]6CC[C@H](Oc7ccc(C#N)c(Cl)c7)CC6)nn5)CC4)C3)cc1)=N[C@@H](Cc1ncco1)c1nnc(C)n1-2` [I-246], the GI50 in the assay on VCaP cells (Homo sapiens, VCaP, 72 h) was under 500 nM; in assay [1] (72 h) it was under 500 nM; in assay [2] (72 h), under 500 nM; in the assay on T47D cells (Homo sapiens, T47D, 72 h), under 500 nM.

Take `Cc1sc2c(c1C)C(c1ccc(OC3CC4(CCCN(c5ccc(C(=O)N[C@H]6CC[C@H](Oc7ccc(C#N)c(Cl)c7)CC6)nn5)C4)C3)nc1)=N[C@@H](Cc1ncco1)c1nnc(C)n1-2` (some centres unmarked) [I-247]: the GI50 was under 500 nM in the assay on VCaP cells (Homo sapiens, VCaP, 72 h); under 500 nM in assay [1] (72 h); under 500 nM in assay [2] (72 h); under 500 nM with T47D cells (Homo sapiens, T47D, 72 h).

`Cc1sc2c(c1C)C(c1ccc(NCC(=O)N3CCC(c4ccc(C(=O)N[C@H]5CC[C@H](Oc6ccc(C#N)c(Cl)c6)CC5)nn4)CC3)cc1)=N[C@H](Cc1ncco1)c1nnc(C)n1-2` [I-248]: the 50% growth inhibitory concentration (GI50) was under 500 nM in the assay on VCaP cells (Homo sapiens, VCaP, 72 h); under 500 nM in assay [1] (72 h); 500 to 1500 nM in assay [2] (72 h); under 500 nM in the assay with T47D cells (Homo sapiens, T47D, 72 h).

Take `Cc1sc2c(c1C)C(c1ccc(CCC(=O)N3CCN(c4ccc(C(=O)N[C@H]5CC[C@H](Oc6ccc(C#N)c(Cl)c6)CC5)nn4)CC3)cc1)=N[C@@H](Cc1ncco1)c1nnc(C)n1-2` [I-249]: the concentration for 50% growth inhibition (GI50) was under 500 nM in the assay with VCaP cells (Homo sapiens, VCaP, 72 h); under 500 nM in assay [1] (72 h); 500 to 1500 nM in assay [2] (72 h); under 500 nM with T47D cells (Homo sapiens, T47D, 72 h).
